These results are taken from patent publication US20090136968A1, “Novel in vitro methods for studying receptors recognizing volatile compounds” (Chemcom S. A., priority 2005, published 2009).

Test [1] addresses T1, mOR-I7 (Mus musculus, UniProt Q9QWU6).
T1 construct: expressed in transfected cells; host or cells: HEK 293T
T1 sequence (Q9QWU6 1-327): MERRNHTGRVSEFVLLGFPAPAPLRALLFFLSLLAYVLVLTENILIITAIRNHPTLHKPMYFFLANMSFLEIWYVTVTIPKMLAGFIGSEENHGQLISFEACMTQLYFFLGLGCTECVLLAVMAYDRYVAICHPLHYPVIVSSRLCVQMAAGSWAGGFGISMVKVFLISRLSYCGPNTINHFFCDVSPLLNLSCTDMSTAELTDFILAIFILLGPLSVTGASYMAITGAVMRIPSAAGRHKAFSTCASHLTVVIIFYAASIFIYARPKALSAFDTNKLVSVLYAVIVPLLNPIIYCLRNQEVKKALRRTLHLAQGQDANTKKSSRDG
Nature of the test: Novel olfactory functional assay (CCBSA), microplate calcium flux (Fluo4, FDSS) on HEK 293T overexpressing mOR-I7. The format is cell-based. As to conditions: for hits / potential ligands of mOR-I7 through the 4 screenings / ligands of mOR-I7 in two independent calcium flux screenings of 30 odorants: BSA as carrier; for hits / potential ligands of mOR-I7 through the 4 screenings: calcium flux and cAMP screenings together; for ligands of mOR-I7 in two independent calcium flux screenings of 30 odorants: standardized to 100 μM ATP; for hit / potential ligand of mOR-I7 in screening of 30 odorants: carrier fraction 4 (bOBP and BSA) incubated with 16 μl of 1M odorant, ratio mOR-I7 on Wt, standardized to 1 mM ATP. Here is the method: (§1) A solution of BP including SA, OBP and/or olfactory mucus (see concentration in the text) was incubated in the presence of odorant in a sealed flask for 16 hours at 4° C. (FIG. 3A). Such incubated-BP solution was then used as tested complex on olfactory receptor-expressing cells. Prior to incubation with such complex, cells were incubated for 1 hour with 4 μM Fluo4-AM (Molecular Probe) in the presence of 1 mM probenecid, and then rinsed twice with Fluo4-AM free HBSS buffer. After injection of odorant-BP complex on OR expressing cells, calcium flux was followed by measuring fluorescence at 520 nm ([…]) on FDSS, a plate reader from Hamamatsu Photonics K.K. (Japan) at 25° C.
In an attempt to be closer to physiological process of olfaction and thereof to increase specificity and sensitivity of the cell-based assay described above, a novel olfactory functional assay was developed. Most of the time, mammalian smells volatile odorant molecules. However in the cell-based assay described above as in most cell-based assays, odorant molecules were injected into aqueous buffer. Such injection may lead to formation of micelles that can alter efficacy and specificity of ligands. Therefore a cell-based assay was developed focusing an a better solubilization of odorants. In summary, in a sealed flask, bovine olfactory mucus was incubated in the presence of an odorant (FIG. 3A). It was hereby tested if an odorant would be trapped and solubilized in that fluid. Thereafter, such solubilized odorant was injected onto cultured-cells overexpressing an olfactory receptor. Activation of this receptor could then be followed by conventional assay including fluorescent (FIGS. 3 B and C) and luminescent calcium assays.
For this novel assay, mOR-I7 activation was assessed by octanal. A constant volume of olfactory mucus was incubated in the presence of increasing amount of octanal ranging from 0 to 16 μl of a solution of 1M octanal. After 16 hours incubation at 4° C., bovine olfactory mucus was injected on HEK 293T overexpressing mOR-I7. Calcium flux was followed with Fluo4 on FDSS, a plate reader from Hamamatsu Photonics K.K. (Japan).
Capacity of fraction 4 to fulfil the role of odorant solubilizator was assessed in the newly proposed assay. Screening of 30 odorant molecules (FIG. 5A) was performed on HEK 293T wild type (FIG. 5C) or overexpressing mOR-I7 (FIG. 5B). Fraction 4 was incubated overnight at 4° C. […] These odorants led to at least one fold more activation of HEK 293T overexpressing mOR-I7 than the wild type counterpart. They can be classified into two groups. One group (FIG. 5 E (a) to (e)) gathers molecules that fit the olfactophore 1 depicted in FIG. 5 E (j). They are schematically made of 2 electronegative poles distanced by 6 carbons. They all contain a 6-8 carbon chain ended by an electronegative group as depicted by olfactophore 2 represented in FIG. 5 E (k).
However this fraction 4 contained two major proteins, bOBP and BSA. Thus the results of said Example could in this approach not rule out any implication of BSA into fraction 4 properties. Therefore the capacity of BSA to solubilize and thereof to enhance the efficacy of odorants in the novel cell based olfactory functional assay as described by the present invention has been tested. To be as close as possible to BSA concentration observed in fraction 4. BSA concentration was set up at 5×10^−6 M for the following experiments (marked by an arrow on FIG. 6 G). Fraction 4 and a solution of fatty acid-free BSA were incubated at 4° C. for 16 hours in the presence of increasing volume of 1M octanal. So-incubated solutions were then applied onto HEK 293T wt or overexpressing mOR-I7. Calcium-flux was followed on a plate reader (Hamamatsu Photonics K.K., Japan) with fluo4 as fluorescent dye (FIG. 6 A to F). […] Such phenomenon is usually observed in such fluorescence assay when increasing ligand concentrations are injected. […]

For test [2], the target named is T1, mOR-I7. In words: cAMP level immunoassay (TROPIX) in the novel assay on HEK 293T overexpressing mOR-I7. The test is classed as cell-based. Conditions: BSA solution incubated with 16 μl of 1 M odorant; 20 minutes incubation. As for the experimental part:
Similarly to the first step of the fluorescence-based functional assay described above, BP solutions including SA, OBP and/or olfactory mucus (see concentration in the text) were incubated in the presence of odorant in a sealed flask for 16 hours at 4° C. (FIG. 3A). Such odorant-BP complexes were then applied to cultured-cell for 20 minutes at 37° C. cAMP level was then measured using the Tropix kit according to the manufacturer procedures (Applied Biosystem).
As depicted in FIG. 1, binding of odorant molecule to olfactory receptor triggers a cascade of molecular events. In the most commonly accepted pathway, the first second messenger is cAMP synthesized by adenylate cyclase type III. Therefore, a mean to test olfactory receptor activation is to assess variation of cellular cAMP pool after olfactory receptor activation. It is noteworthy that such assay could be performed in parallel to calcium flux assay described above to validate hits obtained during a screening.
Specificity of the novel cell based olfactory functional assay according to the present invention was tested following mOR-I7 activation after injection of these three odorants and two non related odorant, vanilline and piperonyl isobutyrate. Olfactory receptor activation was detected by cellular cAMP pool immunoassay. A solution of BSA was incubated overnight at 4° C.
As discussed above (FIG. 1), activation of olfactory receptor can also be followed through cAMP synthesis. […] Results are expressed as percent of response observed after incubation with 100 μM forskolin, an activator of adenylate cyclases. […] Scheme of the odorant molecules are depicted in FIG. 7E.

Test [3] addresses T1, mOR-I7. As to conditions: literature (references); cited from earlier work.
Test [4] has as its system hORL-424. In words: Fluorescent calcium flux assay on HEK 293T overexpressing hORL-424, odorant in assay buffer with or without bovine olfactory mucus. The test is classed as cell-based, human. Here is the method: FIG. 2: Bovine olfactory mucus enhances hORL-424 activation by citronellal. (A and B) Calcium measurement was performed after activation of hORL-424 with citronellal in the presence of different amount of bovine olfactory mucus. 0 to 10 μl of mucus (0 to 10 μg of total protein) have been added to assay buffer. Calcium flux has been followed on FDSS (Hamamatsu Photonics K.K. plate reader, Japan) using Fluo4 as fluorescent dye. Histograms represent fluorescent signal observed in the presence or in the absence of 10 μl of bovine olfactory mucus. (C) Concentration response curve of HEK 293T overexpressing hORL-424 treated with citronellal. Gray boxes represent values obtained in the presence of bovine olfactory mucus. Calcium flux measurements have been performed on FDSS (Hamamatsu Photonics K.K. plate reader, Japan). (D and E) Traces obtained during single cell calcium imaging after addition of 500 μM octanal on HEK 293T overexpressing mOR-I7 in the absence (D) or in the presence of 10 μl of bovine olfactory mucus (E). Fura2 was used as fluorescent dye. Results are expressed as F340/F380 ratiometric measurement.
as §1
hORL-424, a human olfactory receptor, was overexpressed in HEK 293T, a […] (Hunter). […]

With `CCCCC(=O)C(C)=O` [2,3 heptanedione], in test [1], the “hits / potential ligands of mOR-I7 through the 4 screenings” value (“hits / potential ligands” for short) was “hits”; the “ligands of mOR-I7 in two independent calcium flux screenings of 30 odorants” value is reported as “consistent”; the “hit / potential ligand of mOR-I7 in screening of 30 odorants” value (shortened to “hit / potential ligand of mOR-I7”) is “potential ligands of mOR-I7 and hits”.
In the case of `COc1cc(C=O)ccc1O` [Vanilline], in test [2], the “mOR-I7 activation by cellular cAMP pool” value is listed as “did not lead to cAMP synthesis”.
As for `CC/C=C\CCCCC=O` [cis-6-nonenal], the “hit / potential ligand of mOR-I7” value is listed as “potential ligands of mOR-I7” in test [1] and “hits” in test [1] (listed as 6-cis-nonenal).
`CC(C)=CCCC(C)CCO` (stereo not shown) [citronellol]: in test [1], the “ligands of mOR-I7 in two independent calcium flux screenings of 30 odorants” value is listed as “consistent”; the “hit / potential ligand of mOR-I7” value was “potential ligands of mOR-I7 and hits”.
As for `CCCCCCC=O` [heptanal], in test [1], the “hits / potential ligands” value is listed as “hits” and the “ligands of mOR-I7 in two independent calcium flux screenings of 30 odorants” value is listed as “consistent”. Moreover, the “mOR-I7 activation by cellular cAMP pool” value in test [2] is on record as “mOR-I7 ligands”. For the same compound, the “known activation of mOR-I7” value in test [3] is given as “activated specifically”.
Take `CCCCCCCCO` [octanol]: in test [1], the “hits / potential ligands” value is recorded as “hits”, the “ligands of mOR-I7 in two independent calcium flux screenings of 30 odorants” value was “consistent” and the “hit / potential ligand of mOR-I7” value is recorded as “potential ligands of mOR-I7”. Further, the “hit / potential ligand of mOR-I7” value in test [1] (listed as 1-octanol) is “hits”.
Consider `CCCCCCCO` [heptanol], for which, in test [1], the “hits / potential ligands” value is on record as “hits”, the “ligands of mOR-I7 in two independent calcium flux screenings of 30 odorants” value is recorded as “consistent” and the “hit / potential ligand of mOR-I7” value is “potential ligands of mOR-I7”. The “hit / potential ligand of mOR-I7” value in test [1] (listed as 1-heptanol) is on record as “hits”.
For the compound `CC(C)C(=O)OCc1ccc2c(c1)OCO2` [piperonyl isobutyrate], the “mOR-I7 activation by cellular cAMP pool” value in test [2] was “did not lead to cAMP synthesis”.
As to `CC(C)=CCCC(C)CC=O` (stereo not shown) [citronellal], in test [1], the “hits / potential ligands” value is reported as “hits”; the “hit / potential ligand of mOR-I7” value was “potential ligands of mOR-I7 and hits”. For the same compound, the “improvement of hORL-424 activation on addition of bovine olfactory mucus” value in test [4] (bovine olfactory mucus in assay buffer vs absence, fluo4, 96-well plate) is listed as “approximately 9 folds”. For the same compound, the “concentration necessary to reach maximum activation of hORL-424” value in test [4] (conventional assay, no mucus) is recorded as “up to 10 mM”. For the same compound, the “concentration sufficient to reach maximum activation of hORL-424” value in test [4] (olfactory mucus added in the assay buffer) is 0.5 mM. Further, in test [2], the “mOR-I7 activation by cellular cAMP pool” value is given as “mOR-I7 ligands”. Moreover, the “known activation of mOR-I7” value in test [3] is listed as “activated specifically”.
As to `COCCc1ccc(O)cc1` [4(2-methoxyethyl)phenol], the “hit / potential ligand of mOR-I7” value is listed as “potential ligands of mOR-I7” in test [1] and “hits” in test [1] (listed as 4-(2-methoxyethyl)-phenol).
On to `COc1cc(CCC(C)=O)ccc1O` [Vanillyl acetone], for which the “hit / potential ligand of mOR-I7” value in test [1] is “potential ligands of mOR-I7 and hits”.
